Here are results for one compound from paper PMC5929447 (Oncotarget, 2018).

The structures appear in SMILES notation. Where two headings read alike, the source gives them in different places.

Broadly, the EC50 is the midpoint of the concentration-response curve. As a reminder, the IC50 is the concentration at which inhibition is half-maximal. Lower therefore signals inhibition by little substance.

Experiment [1] relates to primary Mantle Cell Lymphoma cells. The experiment is described as follows: Apoptosis (annexin V flow cytometry) in primary MCL cells. It is filed as cell-based. To be noted: Homo sapiens, 24 h. On the procedure: Peripheral blood samples from CLL patients were obtained with informed patient consent and local ethical committee approval (UHL-09723). […] Interphase fluorescence in situ hybridization (FISH) was performed for detection of 17p13 deletion. Mantle cell lymphoma (MCL) primary cells were obtained after informed consent from MCL patients treated at the department of clinical hematology from the University Hospital of Nantes, France. Peripheral MCL cells from blood or pleural effusion, were purified after Ficoll-Hypaque separation with immuno-magnetic anti-CD19 beads (Miltenyi, Paris, France). Primary cells were cultured in RPMI-1640 supplemented with 10% FCS and 2 mM glutamine. Human platelets were isolated from citrate blood donated by healthy volunteers. Washed platelets were cultured in Hepes-buffered saline (HBS, 10 mM Hepes, 150 mM NaCl, 5 mM KCl, 1 mM MgSO4, pH 7.4). […] EC50 values were calculated using GraphPadPrism (non-linear fit, sigmoidal dose response, variable slope). […] Cell death was assessed in the CD19+ primary MCL cells by annexinV-FITC staining combined with an analysis of altered cellular morphology (lower FCS). Fluorescence was analyzed on FACSCalibur.
Background: A flow cytometer gives signals particle by particle.

The next experiment has as its target T1, BFL-1 (Homo sapiens, UniProt Q16548).
T1 sequence (Q16548 1-175): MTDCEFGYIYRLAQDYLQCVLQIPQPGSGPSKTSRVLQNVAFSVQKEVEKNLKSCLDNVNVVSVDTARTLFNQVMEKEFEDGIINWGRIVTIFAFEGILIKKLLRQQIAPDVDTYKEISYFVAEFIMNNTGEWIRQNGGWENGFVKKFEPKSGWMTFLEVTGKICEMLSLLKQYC
The experiment is described as follows: Fluorescence polarization (FP) with Fluorescein-PUMA, BFL-1. (In general: In fluorescence polarisation assays a small probe gives low polarisation when free and higher when bound to something large.)

Experiment [2] relates to Diffuse Large B-Cell Lymphoma cell lines. Description: CellTiter-Glo viability, DLBCL cell line panel. It is filed as cell-based. The following applies: 72 h, six out of eleven DLBCL cell lines tested. On the procedure: (§1) Cells were seeded into 96-well plates and treated at 8 points with 1:2 serial dilution of compounds. Cell viability was assessed and assayed for viability using CellTiter-Glo reagent (Promega) following the manufacturer's instructions. Plates were read using Tecan luminescence plate reader. Results were normalized to the viability of cells without compounds (control wells). The IC50 values were calculated using nonlinear regression algorithms in XCell software.

In experiment [3] the test system is Mantle Cell Lymphoma cell lines. Description: CellTiter-Glo viability, MCL cell line panel. It is filed as cell-based. To be noted: 72 h; two MCL cell lines out of five tested. On the procedure:
as §1
On the technique in general: ATP-based viability assays read luminescence as a measure of living cells.

Another experiment concerns RS4;11 xenograft. Description: RS4;11 xenograft efficacy. The experiment is classed as in vivo, mice. The following applies: for Mean TV change: day 17, mean ± s.e.m.; for % T/C: day 17 post treatment start. On the procedure:
Experiments were performed in SCID/beige female mice from Charles River Laboratories, Massachusetts, USA. Animals, approximately 7-8 weeks of age at the start of the treatment were allowed to acclimate in animal facility with access to food and water ad libitum for 3 days prior to manipulation. Animals were handled in accordance with IACUC regulations and guidelines for experiments performed in the USA and with European and French regulation for the protection of vertebrate animals for experiments performed in France. Animal well-being and behavior, including grooming and ambulation were monitored at least once a day. General health of mice was monitored and mortality recorded daily. Any moribund animals were sacrificed. RS4;11 Acute Lymphoblastic Leukemia cell lines was obtained from ATCC. Toledo (Diffuse Large B-Cell Lymphoma) human cell lines were obtained internally through Bioresources and the Novartis-Cancer Cell Line Encyclopedia. Cells were free of Mycoplasma and murine viral contamination in the IMPACT VIII PCR assay panel ([…] laboratories INC, Westbrook, ME, USA). […] Cells were resuspended in a 1:1 mixture of cold DPBS (Dulbecco's Phosphate-Buffered Saline) and Matrigel^TM (Becton-Dickinson #354234) at a concentration of 3 × 10^7 cells/ml for Toledo cells, and of 1 × 10^7 cells/ml for RS4;11 cells. […] Body weights were recorded and tumors were measured with digital calipers twice to three times a week. Tumor volume was calculated using the formula: length × width^2/2. Percent changes in body weights was calculated as (BWcurrent - BWinitial)/(BWinitial) × 100. Data is presented as percent body weight change from the day of treatment initiation. When tumors reached approximately 200 mm^3 for efficacy studies or 300 mm^3 for pharmacodynamic studies, mice were randomized. […] Mice were treated via oral gavage at 10 ml/kg with the doses and schedules described in the figure. […] Regression = 100 × ΔT/Tinitial if ΔT < 0 where: T = mean tumor burden of the drug-treated group on the final day of the study; ΔT = mean tumor burden of the drug-treated group on the final day of the study - mean tumor burden of the drug-treated group on initial day of dosing; Tinitial = mean tumor burden of the drug-treated group on initial day of dosing; C = mean tumor burden of the control group on the final day of the study; and ΔC = mean tumor burden of the control group on the final day of the study - mean tumor burden of the control group on initial day of dosing. If the tumor volume was less than 14 mm^3 for more than 3 consecutive measurements, animals were considered in complete regression (CR).

In a further experiment the target is BCL-XL (Homo sapiens, UniProt Q07817). The experiment is described as follows: Isothermal titration calorimetry (ITC), BCL-XL. It is filed as binding. To be noted: 25 °C; read-out: ITC_BCL-XL_KD. On the procedure:
The protein was dialyzed prior to use in 2 L of 25 mM HEPES, 150 mM NaCl, 5% glycerol (v/v), 0.5% MTG (v/v) at pH 7.4 for 3 hours at room temperature. The protein was dialyzed using a 3.5 K MWCO Slide-A-Lyzer™ cassette. The protein solution was recovered, spin-filtered through a […] frit. The filtered protein was quantified by UV absorbance at 280 nm using an extinction coefficient of 36440 M^-1cm^-1. 500 ml of dialysis buffer was retained (remainder used to rinse out SCHOT bottle) and degassed for a minimum of 30 mins under vacuum with constant stirring. […] The solutions were carefully matched to ensure same solvent and buffer conditions were present in both syringe and cell (this is to minimize heat of dilution effects). The final solution was the dialysis buffer plus 1% DMSO and 0.05% P20. The experiment was performed over 13 injections with stirring at 1000 rpm, gain setting low and at 25° C. Pure water was used in the reference cell. The first injection was 0.5 μl with a duration of 1 second with a gap of 150 seconds until the further 12 injections of 3.05 μl with a duration 6.1 seconds and a 240 second interval between injections. Data was analyzed using the vendor supplied software, PEAQ-ITC Analysis Software. The data model used was the single site model. The data shown is the average of 2 or 3 independent experiments.

Where [4] appears, read: 100 mg/kg oral daily for 7 days.

Sequence of BCL-XL (Q07817 whole entry): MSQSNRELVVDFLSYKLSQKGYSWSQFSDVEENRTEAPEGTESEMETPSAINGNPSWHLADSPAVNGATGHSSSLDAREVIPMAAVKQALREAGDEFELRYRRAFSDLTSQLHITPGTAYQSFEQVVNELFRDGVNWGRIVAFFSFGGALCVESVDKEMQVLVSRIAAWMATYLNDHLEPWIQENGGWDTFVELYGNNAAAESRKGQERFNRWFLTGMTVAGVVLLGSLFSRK
Experimental for BFL-1: Final concentrations of MCL-1, BFL-1, BCL-2 and BCL-XL proteins were 10, 10, 10 and 20 nM respectively. The assay plates were incubated for 2 hours at room temperature and the FP was measured on a Synergy 2 reader (Ex. 528 nm, Em. 640 nm, Cut-off 510 nm). The binding of increasing doses of compound was expressed as a percentage reduction in mP compared to the window established between ‘DMSO only’ and ‘total inhibition’ control (30 μM PUMA). […] The KI was subsequently calculated as previously described [42].

As to `O=C(c1cc(-c2cc3c(cc2C(=O)N2Cc4ccccc4C[C@H]2CN2CCOCC2)OCO3)n2c1CCCC2)N(c1ccccc1)c1ccc(O)cc1` [S55746], the half-maximal effective concentration (EC50) in experiment [1] (8 patients, 24 h of treatment, read-out: EC50 apoptosis in primary MCL cells, range over patients) was 0.0025 to 0.11 µM; in experiment [1] (read-out: EC50 S55746 primary MCL cells, patient MCL2, 24 h), 0.015 µM; in experiment [1] (read-out: EC50 S55746 primary MCL cells, patient MCL3, 24 h), 0.012 µM; in experiment [1] (read-out: EC50 S55746 primary MCL cells, patient MCL4, 24 h), 0.012 µM; in experiment [1] (read-out: EC50 S55746 primary MCL cells, patient MCL5, 24 h), 0.005 µM; in experiment [1] (read-out: EC50 S55746 primary MCL cells, patient MCL6, 24 h), 0.004 µM. For the same compound, the EC50 in experiment [1] (read-out: EC50 S55746 primary MCL cells, patient MCL7, 24 h) is 0.003 µM; in experiment [1] (read-out: EC50 S55746 primary MCL cells, patient MCL8, 24 h) it was 0.0025 µM. For the same compound, at BFL-1 (FP), the “binding to BFL-1” value is “No significant binding”. In addition, the “FP_BFL-1, % of inhibition at the maximal tested concentration” value on BFL-1 (at 5E-06 M) was 7.4%@5E-06. Further, the IC50 in experiment [2] and in experiment [3] was under 1 µM each time. In addition, the “Mean TV change” value in the experiment with RS4;11 xenograft (25 mg/kg oral daily for 7 days) is recorded as 782.38 ± 107.32 mm3; in the experiment with RS4;11 xenograft (50 mg/kg oral daily for 7 days) it was 190.50 ± 76.72 mm3; in the experiment on RS4;11 xenograft (setting [4]) it was “–98.13 ± 11.62 mm3”. Also, the “% T/C” value is recorded as 67.1 % T/C in the experiment on RS4;11 xenograft (25 mg/kg oral daily for 7 days) and 16.3 % T/C in the experiment with RS4;11 xenograft (50 mg/kg oral daily for 7 days). In the experiment with RS4;11 xenograft (setting [4]), the complete regression result is “complete regression observed in all animals”. Further, the Kd at BCL-XL came to 0.186 µM.
